We go through eight molecules from patent US7205403B2, “8-Heteroaryl xanthine adenosine A2B receptor antagonists” (King Pharmaceuticals Research and Development, Inc., priority 2002, dated 2007).

“Also recorded” adds a separate entry of the source. Like-named read-outs stand apart in the source and are kept apart here.

Experiment [1] concerns the target T1, human A1 adenosine receptor (Homo sapiens, UniProt P30542).
T1 construct: expressed in transfected cells; host or cells: CHO cells (membranes)
T1 sequence (P30542 1-326): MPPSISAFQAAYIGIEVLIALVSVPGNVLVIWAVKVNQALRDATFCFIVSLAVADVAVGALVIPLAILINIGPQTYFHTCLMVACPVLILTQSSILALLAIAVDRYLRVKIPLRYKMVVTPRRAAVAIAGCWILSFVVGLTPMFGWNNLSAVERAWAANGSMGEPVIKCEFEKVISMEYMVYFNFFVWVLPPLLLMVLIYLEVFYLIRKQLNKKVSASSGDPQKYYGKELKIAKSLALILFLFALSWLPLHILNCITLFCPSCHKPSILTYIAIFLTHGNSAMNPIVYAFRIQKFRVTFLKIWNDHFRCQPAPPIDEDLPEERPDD
As to the kind of experiment: [3H]DPCPX binding to human A1 receptors expressed in CHO cells. As to conditions: geometric mean (95% confidence interval); >1000 = no appreciable binding.

Experiment [2] concerns the target T2, human A2A adenosine receptor (Homo sapiens, UniProt P29274).
T2 construct: expressed in transfected cells; host or cells: CHO cells (membranes)
As to the kind of experiment: [3H]ZM241385 binding to human A2A receptors expressed in CHO cells. In short, it runs like this:
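Membranes from adherent CHO cells, resuspended in 50 mM Tris HCl with 10 mM MgCl2, pH 7.4. The inhibitory binding constant is reported.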

The target in experiment [3] is T3, human A3 adenosine receptor (Homo sapiens, UniProt P0DMS8).
T3 construct: expressed in transfected cells; host or cells: CHO cells (membranes)
T3 sequence (P0DMS8 1-318): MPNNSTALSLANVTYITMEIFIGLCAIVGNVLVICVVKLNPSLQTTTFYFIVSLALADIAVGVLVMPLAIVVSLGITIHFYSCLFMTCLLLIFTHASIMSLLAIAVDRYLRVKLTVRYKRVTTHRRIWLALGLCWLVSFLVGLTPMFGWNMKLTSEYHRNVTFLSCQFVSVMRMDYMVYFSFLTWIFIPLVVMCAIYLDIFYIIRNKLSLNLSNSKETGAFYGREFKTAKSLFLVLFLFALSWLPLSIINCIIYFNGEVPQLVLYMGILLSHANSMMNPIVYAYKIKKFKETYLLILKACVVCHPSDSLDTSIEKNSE
Kind of experiment: [3H]MRE3008F20 binding to human A3 receptors expressed in CHO cells. In short, it runs like this:
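CHO cell membranes (50 μg protein) competed against 1 nM [3H]-MRE3008-F20 in 50 mM Tris HCl, MgCl2, pH 7.4, with 6–8 ligand concentrations in duplicate, 120 minutes at 4° C. Filter-bound radioactivity counted by scintillation; inhibitory binding constants derived.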

Experiment [4] deals with T4, human A2B adenosine receptor (Homo sapiens, UniProt P29275).
T4 sequence (P29275 1-332): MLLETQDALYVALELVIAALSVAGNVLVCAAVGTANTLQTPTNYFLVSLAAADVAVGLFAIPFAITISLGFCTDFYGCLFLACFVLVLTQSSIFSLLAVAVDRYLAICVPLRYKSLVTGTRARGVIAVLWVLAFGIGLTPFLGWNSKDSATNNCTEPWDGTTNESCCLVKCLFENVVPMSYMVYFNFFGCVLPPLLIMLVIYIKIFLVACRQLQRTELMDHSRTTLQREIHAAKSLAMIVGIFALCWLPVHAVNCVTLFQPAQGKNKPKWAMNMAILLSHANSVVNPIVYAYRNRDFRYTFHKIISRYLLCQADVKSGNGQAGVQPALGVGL
Kind of experiment: Cyclic AMP assay, antagonism of NECA-stimulated cAMP in CHO cells transfected with human A2B receptors. The experiment is classed as cell-based. On the procedure: Measurement of cyclic AMP (CAMP) levels in CHO cells transfected with human A2B adenosine receptors was performed in the following manner. CHO cells transfected with human A2B adenosine receptors were washed with phosphate-buffered saline, diluted tripsine and centrifuged for 10 minutes at 200 g.
The reaction was terminated by the addition of cold 6% thrichloroacetic acid (TCA). The TCA suspension was centrifuged at 2000 g for 10 minutes at 4° C. and the supernatant was extracted four times with water saturated diethyl ether. The final aqueous, solution was tested for cAMP levels by a competition protein binding assay. Samples of cAMP standard (0–10 pmoles) were added to each test tube containing the incubation buffer (trizma base 0.1 M, aminophylline 8.0 mM, 2-mercaptoethanol 6.0 mM, pH 7.4) and [H^3]-cAMP in a total volume of 0.5 ml. The binding protein previously prepared from beef adrenals, was added to the samples previously incubated at 4° C. for 150 minutes, and after the addition of charcoal were centrifuged at 2000 g for 10 minutes. The clear supernatant was counted in a Beckman scintillation counter.
Finally, to evaluate the regulation of adenylyl cyclase activity and to test whether the binding parameters correlated with the functional response, the IC50 values were obtained for inhibition of cAMP production by antagonists. In particular, we evaluated the capability of the several compounds to inhibit NECA (100 nM)-stimulated cyclic AMP accumulation.

In experiment [5] the target is T4, human A2B adenosine receptor. Kind of experiment: [3H]DPCPX binding to human A2B receptors expressed in HEK293 cells. Also noted: host or cells: HEK 293 cells (membranes). In outline:
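Membranes (20 μg protein) from HEK293 cells expressing recombinant human A2B receptor were incubated 60 min at 25° C with 40 nM [3H]-DPCPX and 6–8 compound concentrations. Buffer was Tris-HCl with MgCl2, 1 mM EDTA, 0.1 mM benzamidine and 2 IU/ml adenosine deaminase, pH 7.4. Filter-bound radioactivity gave the inhibitory binding constant.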

Where [6] appears, read: read-out: Ki, [3H]ZM241385 binding to human A2A receptors expressed in CHO cells.
Setting [7] is: inhibition of NECA (100 nM)-stimulated cAMP, geometric mean (95% confidence limits).
The mark [8] stands for this setting: Table 2, geometric mean (95% confidence limits), at least three experiments in duplicate, read-out: [3H]-DPCPX binding to human A2B receptors in HEK 293 cells Ki.
Where [9] appears, read: geometric mean (95% confidence interval), >1000 = no appreciable binding, read-out: Ki, [3H]DPCPX binding to human A2B receptors expressed in HEK293 cells.
[10] abbreviates: geometric mean (95% confidence interval), >1000 = no appreciable binding.

T2 sequence (P29274 whole entry): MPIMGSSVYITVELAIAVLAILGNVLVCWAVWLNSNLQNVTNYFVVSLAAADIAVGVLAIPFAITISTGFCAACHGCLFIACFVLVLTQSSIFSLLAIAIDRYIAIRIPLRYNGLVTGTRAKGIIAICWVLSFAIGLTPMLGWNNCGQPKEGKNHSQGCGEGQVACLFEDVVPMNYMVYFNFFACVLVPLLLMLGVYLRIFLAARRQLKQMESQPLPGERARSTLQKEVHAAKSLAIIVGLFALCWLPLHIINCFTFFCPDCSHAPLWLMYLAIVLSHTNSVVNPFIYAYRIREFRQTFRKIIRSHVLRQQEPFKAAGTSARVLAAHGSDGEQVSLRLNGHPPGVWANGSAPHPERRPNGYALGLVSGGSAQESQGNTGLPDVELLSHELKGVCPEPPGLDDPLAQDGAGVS

`CCCn1c(=O)c2[nH]c(-c3cc(NC(=O)Cc4ccccc4)nn3C)nc2n(CCC)c1=O` [AS11, N-[5-(2,6-dioxo-1,3-dipropyl-2,3,6,9-tetrahydro-1H-purin-8-yl)-1-methyl-1H-pyrazol-3-yl]-2-phenylacetamide]: the Ki (commonly the equilibrium dissociation constant of an inhibitor or competing ligand from its target) in experiment [1] is 0.9 µM; in experiment [2] (setting [6]), above 1 µM; in experiment [3], above 1 µM; in experiment [5] (setting [8]) it was 0.035 µM; in experiment [5] (setting [9]), 0.035 µM. 0.103 µM corresponded to half-maximal inhibition in experiment [4] (setting [7]) (IC50).
For the molecule `CCCn1c(=O)c2[nH]c(-c3cc(NC(=O)Cc4ccc(Cl)cc4)nn3C)nc2n(CCC)c1=O` [AS27, N-[5-(2,6-dioxo-1,3-dipropyl-2,3,6,9-tetrahydro-1H-purin-8-yl)-1-methyl-1H-pyrazol-3-yl]-2-(4-chlorophenyl)acetamide], the Ki in experiment [1] was 0.52 µM; in experiment [2] (setting [6]) it was above 1 µM; in experiment [3], above 1 µM; in experiment [5] (setting [8]), 0.028 µM; in experiment [5] (setting [9]), 0.028 µM. Moreover, in experiment [4] (setting [7]), 0.128 µM corresponded to half-maximal inhibition (IC50).
With `CCCn1c(=O)c2[nH]c(-c3cc(NC(=O)Cc4ccc(OCc5ccccc5C(F)(F)F)cc4)nn3C)nc2n(CCC)c1=O` [AS29, N-[5-(2,6-dioxo-1,3-dipropyl-2,3,6,9-tetrahydro-1H-purin-8-yl)-1-methyl-1H-pyrazol-3-yl]-2-(4-{[2-(trifluoromethyl)benzyl]oxy}phenyl)acetamide], the inhibition constant (Ki) in experiment [1] was 0.056 µM; in experiment [2] (setting [6]), above 1 µM; in experiment [3], above 1 µM; in experiment [5] (setting [8]) it was 0.013 µM; in experiment [5] (setting [9]), 0.013 µM. Further, 0.093 µM corresponded to half-maximal inhibition in experiment [4] (setting [7]) (IC50).
In the case of `CCCn1c(=O)c2[nH]c(-c3cc(NC(=O)Cc4ccc(OC)c(OC)c4)nn3C)nc2n(CCC)c1=O` [AS28, 2-(3,4-dimethoxyphenyl)-N-[5-(2,6-dioxo-1,3-dipropyl-2,3,6,9-tetrahydro-1H-purin-8-yl)-1-methyl-1H-pyrazol-3-yl]acetamide], in experiment [1], the “Ki, [3H]DPCPX binding to human A1 receptors expressed in CHO cells” value was “no appreciable binding; also recorded: without significant binding”. In addition, the “Ki, [3H]ZM241385 binding to human A2A receptors expressed in CHO cells” value in experiment [2] (setting [10]) was “no appreciable binding; also recorded: without significant binding”. Moreover, the inhibition constant (Ki) in experiment [2] (setting [6]) is above 1 µM; in experiment [3] it was above 1 µM; in experiment [5] (setting [8]) it was 0.038 µM; in experiment [5] (setting [9]) it was 0.038 µM. In addition, the “Ki, [3H]MRE3008F20 binding to human A3 receptors expressed in CHO cells” value in experiment [3] (setting [10]) was “no appreciable binding; also recorded: without significant binding”. For the same molecule, half-maximal inhibition in experiment [4] (setting [7]) (IC50) required 0.12 µM.
As to `CCCn1c(=O)c2[nH]c(-c3cc(NC(=O)Cc4ccccc4)n(C)n3)nc2n(CCC)c1=O` [AS35], it took 0.152 µM to reach half-maximal inhibition in experiment [4] (setting [7]) (IC50). In addition, the inhibitory constant (Ki) in experiment [5] (setting [8]) and in experiment [5] (setting [9]) was 0.034 µM each time.
As to `CCCn1c(=O)c2[nH]c(-c3cc(NC(=O)Nc4cccc(Cl)c4)nn3C)nc2n(CCC)c1=O` [AS54, N-(3-chlorophenyl)-N'-[5-(2,6-dioxo-1,3-dipropyl-2,3,6,7-tetrahydro-1H-purin-8-yl)-1-methyl-1H-pyrazol-3-yl]urea], the inhibition constant (Ki) in experiment [1] is 0.448 µM; in experiment [2] (setting [6]), above 1 µM; in experiment [3], above 1 µM; in experiment [5] (setting [8]), 0.039 µM; in experiment [5] (setting [9]), 0.039 µM. For the same molecule, in experiment [4], the IC50 (in general, the concentration that gives 50% inhibition) is 0.136 µM.
Consider `CCCn1c(=O)c2[nH]c(-c3cc(OCC(=O)Nc4ccc(Br)cc4)nn3C)nc2n(CCC)c1=O` [AS65, 2-{[5-(2,6-dioxo-1,3-dipropyl-2,3,6,9-tetrahydro-1H-purin-8-yl)-1-methyl-1H-pyrazol-3-yl]oxy}-N-(4-bromophenyl)acetamide], for which the Ki in experiment [1] was 0.15 µM; in experiment [2] (setting [6]), above 1 µM; in experiment [3], above 1 µM; in experiment [5] (setting [8]), 0.02 µM; in experiment [5] (setting [9]), 0.02 µM. For the same molecule, in experiment [4] (setting [7]), the 50% inhibitory concentration (IC50) was 0.108 µM.
As for `CCCn1c(=O)c2[nH]c(-c3cc(NC(=O)Cc4ccc5c(c4)OCO5)nn3C)nc2n(CCC)c1=O` [AS57, 2-(1,3-benzodioxol-5-yl)-N-[5-(2,6-dioxo-1,3-dipropyl-2,3,6,9-tetrahydro-1H-purin-8-yl)-1-methyl-1H-pyrazol-3-yl]acetamide], the Ki is 0.566 µM in experiment [1]; 1.25 µM in experiment [2]; above 1 µM in experiment [3]; 0.018 µM in experiment [5] (setting [8]); 0.018 µM in experiment [5] (setting [9]). Moreover, the concentration for half-maximal inhibition (IC50) in experiment [4] (setting [7]) is 0.095 µM.
